Data set [1] relates to HEK293T cells. The data set is described as follows: Scratch (migration) assay, HEK293T transfected with PRL-3 or empty vector. Type of data set: cell-based, human. The settings on record: HEK293T transfected with PRL-3, 24 h, compared to DMSO. The procedure: pENTR-PRL-3 (previously described[51]) was cloned into pLKO-CMV-puro using LR clonase (Thermofisher, 11,791,019) according to manufacturer’s directions. pLKO-CMV empty vector (EV) and pLKO-CMV:PRL-3 were transfected into HEK293T using Lipofectamine 3000 (ThermoFisher, L3000015) according to manufacturer’s protocol. Transfected cells were selected with 1 µg/mL puromycin in complete media to establish the cell line, then were maintained under 0.5 µg/mL puromycin in complete media. For PRL-3 knockdown, pLKO.1-scrambled shRNA and pLKO.1-PRL-3 shRNA[51] plasmids were transfected into HCT116 cells using Lipofectamine 3000 (Thermo Fisher, Cat # L3000015) according to the manufacturer’s directions. Cells were selected for 48 h in 1 µg/mL puromycin before use in assays.
Cells were seeded into duplicate wells of a 48 well plates at a density of 2 × 10^5 cells per well for HEK293T or 4 × 10^5 for HCT116 and SW480. Cells were recovered overnight and were scratched using a p20 pipette tip the following day. Compounds were added at the concentrations indicated. Images were obtained immediately after the scratch and after a 24 h incubation with the drug on an Evos FL inverted microscope (ThermoFisher). The area within the scratch was calculated using ImageJ. The area migrated was measured as the difference in wound area at 0 h and 24 h and the percent change in migration was calculated by dividing the difference in wound area of treatment by the difference in wound area of the control.

Data set [2] concerns HEK293T cells. The data set is described as follows: MTT viability assay. Format: cell-based, human. As to conditions: drug doses 1 to 100 µM, 16 h, normalized to 1% DMSO. For orientation: Tetrazolium dyes change colour on reduction, which living cells bring about.
Description: Cells were seeded into duplicate wells of a 96 well plate at a density of 2 × 10^4 cells per well and allowed to recover for 24 h. Cells were then treated with drug or DMSO at the indicated concentrations for 16 h. Following drug treatment, 10 μL of 5 mg/ml MTT (Sigma, M5655) was added to each well and cells were incubated for 4 h. Finally, media were removed, and the dye was solubilized in 100 μL of 0.1 M HCl in isopropanol. Absorbance was measured at 570 nm and 690 nm with final absorbance measurements as 570–690 nm.
The target in a further data set is T1, recombinant PRL-3 (Homo sapiens, UniProt O75365).
T1 construct: 6xHis (N, cleaved yes); made in house; host or cells: E. coli One Shot BL21 Star
T1 sequence (O75365 whole entry): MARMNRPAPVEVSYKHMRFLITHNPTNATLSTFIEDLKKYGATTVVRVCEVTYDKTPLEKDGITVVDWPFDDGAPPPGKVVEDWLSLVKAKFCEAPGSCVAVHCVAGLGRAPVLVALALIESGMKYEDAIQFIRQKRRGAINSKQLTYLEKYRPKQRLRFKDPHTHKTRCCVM
The data set is described as follows: In vitro phosphatase assay (DiFMUP hydrolysis), PRL-3. As to conditions: for IC50: 2.5 µM protein, DiFMUP at KM, read-out: Calculated IC50, PRL-3 phosphatase activity. Type of data set: biochemical.

Another data set concerns the target T2, recombinant PRL-1 (Homo sapiens, UniProt Q93096).
T2 construct: 6xHis (N, cleaved yes); made in house; host or cells: E. coli One Shot BL21 Star
T2 sequence (Q93096 1-173): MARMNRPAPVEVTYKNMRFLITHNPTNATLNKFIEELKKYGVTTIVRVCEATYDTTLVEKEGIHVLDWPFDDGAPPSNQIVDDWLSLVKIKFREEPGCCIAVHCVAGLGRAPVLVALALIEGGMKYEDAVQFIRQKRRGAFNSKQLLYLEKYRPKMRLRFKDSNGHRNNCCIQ
The data set is described as follows: In vitro phosphatase assay (DiFMUP hydrolysis), PRL-1. Type of data set: biochemical. As to conditions: for IC50: 2.5 µM protein, DiFMUP at KM, read-out: Calculated IC50, PRL-1 phosphatase activity.

The next data set deals with T3, recombinant PRL-2 (Homo sapiens, UniProt Q12974).
T3 construct: 6xHis (N, cleaved yes); made in house; host or cells: E. coli One Shot BL21 Star
T3 sequence (Q12974 1-167): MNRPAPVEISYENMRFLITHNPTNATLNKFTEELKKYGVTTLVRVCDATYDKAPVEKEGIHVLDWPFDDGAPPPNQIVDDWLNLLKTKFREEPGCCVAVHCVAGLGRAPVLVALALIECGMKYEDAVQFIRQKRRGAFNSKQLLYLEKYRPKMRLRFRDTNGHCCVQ
Description: In vitro phosphatase assay (DiFMUP hydrolysis), PRL-2.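 As to all read-outs here: PRL-2 activity read as DiFMUP hydrolysis after 20 min at room temperature with drug, enzyme first pre-reduced at 4 °C for 20 min.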 Type of data set: biochemical. The settings on record: for IC50: 2.5 µM protein, DiFMUP at KM, read-out: Calculated IC50, PRL-2 phosphatase activity.

The mark [3] stands for this setting: FDA-approved drug screen, compared to DMSO.

Consider `COCCn1c2c([n+](Cc3cnccn3)c1C)C(=O)c1ccccc1C2=O` [YM155, reference compound], for which the “cellular migration in PRL-3 overexpressing cells” value (“cellular migration” for short) with HEK293T cells [1] is given as “less significant effects on the migration of PRL-3 expressing cells”. In addition, in the data set on HEK293T cells [2], the “viability (MTT)” value was “decreased viability”. For the same compound, the half-maximal inhibitory concentration (IC50) (commonly the concentration that inhibits the measured activity by half) on recombinant PRL-3 is 300 ± 100 nM; at recombinant PRL-1, 300 ± 100 nM; at recombinant PRL-2, 700 ± 100 nM.

`COc1cc(C(=O)O)ccc1NC(=O)[C@@H]1N[C@@H](CC(C)(C)C)[C@](C#N)(c2ccc(Cl)cc2F)[C@H]1c1cccc(Cl)c1F` [Idasanutlin, reference compound]: in the data set on HEK293T cells [1], the “cellular migration” value is “less significant effects on the migration of PRL-3 expressing cells”. Also, the “viability (MTT)” value with HEK293T cells [2] is given as “decreased viability”. Moreover, the IC50 on recombinant PRL-3 is 13000 ± 400 nM; at recombinant PRL-1 it was 20000 ± 3000 nM; at recombinant PRL-2, 16000 ± 2000 nM.

`CC(=O)c1cc2c(o1)C(=O)c1ccccc1C2=O` [Napabucasin, reference compound]: the “cellular migration” value with HEK293T cells [1] is recorded as “less significant effects on the migration of PRL-3 expressing cells”. The “viability (MTT)” value with HEK293T cells [2] is reported as “decreased viability”. The IC50 was 700 ± 100 nM on recombinant PRL-3, 400 ± 200 nM on recombinant PRL-1 and 1100 ± 300 nM on recombinant PRL-2. The “% Phosphatase Activity (compared to DMSO) PRL-3” value on recombinant PRL-3 (setting [3]) was 10%. Further, the “% Phosphatase Activity (compared to DMSO) PRL-1” value on recombinant PRL-1 (setting [3]) amounted to 16%. Also, the “% Phosphatase Activity (compared to DMSO) PRL-2” value at recombinant PRL-2 (setting [3]) worked out at 26%.

These data come from paper PMC8119466, “A screen of FDA-approved drugs identifies inhibitors of protein tyrosine phosphatase 4A3 (PTP4A3 or PRL-3)” (Scientific Reports, 2021).
